According to patent publication US6242482A, “Prostaglandin compounds and derivatives thereof, compositions containing the same and method of using the same for the treatment of congestive heart failure” (priority 2000, dated 2001):
Where “and” joins values, the source holds several entries; their conditions need not be identical. Equal entries are not always repeated. Entries after “also recorded” stand apart in the source; their conditions may differ. Where two headings read alike, the source gives them in different places.

Assays:
[1] = background; cited from earlier work
[2] = system: Human Platelet Aggregation (collagen-induced); assay: Anti-aggregatory activity, 1 min incubation with PRP, collagen-induced (Example 8); type: cell-based; details: 1 minute with PRP
Method: (§1) Blood from healthy human volunteers who had not taken any medicine for at least 14 days was collected by venopuncture into 3.15% (w/v) tri-sodium citrate (9:1 v/v). The blood was centrifuged at 800 g for 15 minutes to produce PRP. The PRP was further centrifuged at 12,000 g for 1 minute to produce PPP. A total of 12 volunteers donated blood for the study.
(§2) Platelet aggregation was studied using a dual channel Payton aggregometer calibrated with PRP (0%) and PPP (100%) with respect to the degree of light transmission. Aliquots of PRP (500 μl) were added to siliconized cuvettes, stirred (1000 revs/min) and warmed to 37° C. The platelets were incubated for 1 minute to establish a stable baseline prior to investigation. A submaximal concentration of the aggregating agent collagen (1 μg/ml) was added to the PRP and the platelet aggregation was monitored as the increase in light transmission observed over a 4 minute period.
The percentage inhibition of the platelet aggregation was calculated using the peak increase in light transmission observed over the 4 minute period following addition of collagen, as compared to that of control. This experiment was repeated using PRP from at least three human volunteers for each compound under study.

[3] = system: Human Platelet Aggregation (collagen-induced); assay: Anti-aggregatory response after incubation with PPP (Example 8); type: cell-based
Method: as §1, §2
(§3) After the incubation period, an aliquot of the PPP or aqueous vehicle (50 μl) was added to fresh PRP (450 μl) for determination of anti-platelet activity. This experiment was repeated using PPP from at least three human volunteers for each compound.

[4] = system: Human Platelet Aggregation (collagen-induced); assay: Anti-aggregatory response after incubation with aqueous vehicle (Example 8); type: cell-based; details: up to 4 hours at 37° C
Method: as §1, §2, §3

[5] = system: mean arterial pressure and heart rate of anesthetized rats; assay: Systemic hemodynamic effects, intravenous, anesthetized rats (Example 9); type: in vivo, rat (male Wistar)
Method: Among other effects, lowering of the blood pressure inside the blood vessels is beneficial for the treatment of congestive heart failure by reducing the vascular resistance of the blood flow which substantially reduces the work load imposed on the heart. […] This study involved the use of male Wistar rats anaesthetized with thiopentone sodium ([…]®, 120 mg kg^-1 i.p.). The trachea was cannulated to facilitate breathing.

[6] = system: mean arterial pressure and heart rate of anesthetized rats; details: for Time of second Δmax (superscript) / Time of Δmax (superscript) / t1/2 / Δmax (Mean Arterial Pressure) / Δmax, second value in parentheses: Table 5; for Mean Arterial Pressure: b338-b348 = 0,1,5,10,15,30,60,120,180,240,360 min
Method: Male Wistar rats (250-330 g) were anesthetized with thiopentone sodium (INTRAVAL®, 120 mg/kg i.p.). The trachea was cannulated to facilitate respiration. The right carotid artery was cannulated and connected to a pressure transducer (Spectramed P23XL), for the measurement of mean arterial pressure (MAP) and heart rate (HR) which were continuously recorded on a 4-channel Grass 7D polygraph recorder (Grass, Mass., U.S.A.). Body temperature was maintained at 37±1°C. by means of a rectal probe thermometer attached to a homeothermic blanket control unit (Harvard Apparatus Ltd.).

Compound: CCCCC[C@H](O)/C=C/[C@@H]1[C@H]2C/C(=C/CCCC(=O)O)O[C@H]2C[C@H]1O [prostacyclin]
- effective life [1]: less than six

Compound: CCCCCC(CCC1C(OC(C)=O)CC2Cc3c(cccc3OCC(=O)O)CC21)OC(C)=O (stereo not drawn) [Compound 4, Compound X Diacetate]
- inhibiting aggregation by 50% concentration (IC50) [2]: 68 ± 2 µg/mL
- inhibition of platelet aggregation, concentration dependence [2]: concentration-dependent inhibition of platelet aggregation
- inhibition of aggregation response at highest concentrations ([2]; X 30 and 100 ng/ml, 4 300 μg/ml, 6 3 mg/ml, 7 10 mg/ml): completely inhibited the aggregation response
- IC50 ([3]; after 15 minutes in PPP): 5 ± 0.2 µg/mL
- increase in anti-platelet activity ([3]; after 15 minutes in PPP): ~10 fold
- increase in activity on incubation with plasma or aqueous vehicle ([3]; initial ten (10) minute period, plasma or aqueous vehicle): ~10 fold
- effect of incubation with PPP on anti-platelet activity ([3]; up to 4 hours at 37° C): no further increase in activity; also recorded: this increase in activity was no greater after four (4) hours of incubation
- effect of incubation with aqueous vehicle/saline/buffer on anti-platelet activity [4]: This effect was also observed during incubation of the compound in saline
- effective life of the fall in MAP ([5]; 1 mg/kg i.v.): about 110 minutes
- maximum fall in MAP ([5]; 1 mg/kg i.v.): about 30 mm Hg
- time of maximum fall in MAP ([5]; 1 mg/kg i.v.): 30 min
- effective life of the fall in MAP ([5]; comparison of Compound 4 with Compound X (1 mg/kg i.v.)): over 90 minutes
- fall in MAP ([5]; i.v., Compound X 1 mg/kg, Compound 4 1-10 mg/kg, others 3-30 mg/kg): rapid, dose-related fall in MAP; also recorded: rapid and substantial falls in MAP
- effective life of the fall in MAP ([6]; 1 mg/kg s.c.): > 300 min
- maximum fall in MAP ([6]; 1 mg/kg s.c.): about 26 mm Hg
- time of maximum fall in MAP ([6]; 1 mg/kg s.c.): 60 min
- Time of second Δmax (superscript) ([6]; 1 mg/kg s.c.): 210 min
- Time of Δmax (superscript) ([6]; 1 mg/kg s.c.): 60 min
- t1/2 ([6]; 1 mg/kg s.c.): > 300 min
- Δmax (Mean Arterial Pressure) ([6]; 1 mg/kg s.c.): 26 ± 6 mm Hg
- Δmax, second value in parentheses ([6]; 1 mg/kg s.c.): 28 ± 7 mm Hg
- Mean Arterial Pressure ([6]; 1 mg/kg s.c.): 87 ± 3 mm Hg and 94 ± 3 mm Hg
- another fall in MAP ([6]; 1 mg/kg s.c., second fall): 28 mm Hg
- time of another fall in MAP ([6]; 1 mg/kg s.c., second fall): 210 min
- effective life of the fall in MAP ([6]; 3 mg/kg s.c.): > 330 min
- Time of Δmax (superscript) ([6]; 3 mg/kg s.c.): 30 min
- t1/2 ([6]; 3 mg/kg s.c.): > 330 min
- Δmax (Mean Arterial Pressure) ([6]; 3 mg/kg s.c.): 41 mm Hg
- Mean Arterial Pressure ([6]; 3 mg/kg s.c.): 87 ± 4 mm Hg
- effective life of the fall in MAP ([6]; 10 mg/kg s.c.): > 300 min
- Time of second Δmax (superscript) ([6]; 10 mg/kg s.c.): 150 min
- Time of Δmax (superscript) ([6]; 10 mg/kg s.c.): 60 min
- t1/2 ([6]; 10 mg/kg s.c.): > 300 min
- Δmax (Mean Arterial Pressure) ([6]; 10 mg/kg s.c.): 45 ± 5 mm Hg
- Δmax, second value in parentheses ([6]; 10 mg/kg s.c.): 48 ± 6 mm Hg
